Measured values published in patent US20250353864A1, “INDAZOLE CONTAINING MACROCYCLES AND THEIR USE” (BLOSSOMHILL THERAPEUTICS, INC., priority 2022, published 2025).

Legend:
Format in all cases: biochemical
EGFR (D770_N771insNPG) = EGFR (D770_N771insNPG) (Homo sapiens (Human), UniProt P00533, INS770NPG); experiment: HotSpot radiometric kinase assay, EGFR (D770_N771insNPG); conditions: 10 μM ATP, read-out: EGFR (Δ770_N771insNPG) IC50
Procedure, shortened: (§1)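 Compounds were preincubated ~20 min with kinase/substrate in pH 7.5 Hepes buffer (MgCl2, EGTA, Brij35, BSA, Na3VO4, DTT, 1% DMSO), then ATP plus 33P-ATP was added to 10 μM final. After 120 min at room temperature, reactions were spotted on P81 filters and washed; IC50 values came from curve fits.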

EGFR L858R/T790M mutant = EGFR L858R/T790M mutant (Homo sapiens (Human), UniProt P00533, L858R/T790M); experiment: HotSpot radiometric kinase assay, EGFR L858R/T790M mutant; conditions: 10 μM ATP
EGFR L858R/T790M mutant, sequence (P00533 25-1210 T790M/L858R): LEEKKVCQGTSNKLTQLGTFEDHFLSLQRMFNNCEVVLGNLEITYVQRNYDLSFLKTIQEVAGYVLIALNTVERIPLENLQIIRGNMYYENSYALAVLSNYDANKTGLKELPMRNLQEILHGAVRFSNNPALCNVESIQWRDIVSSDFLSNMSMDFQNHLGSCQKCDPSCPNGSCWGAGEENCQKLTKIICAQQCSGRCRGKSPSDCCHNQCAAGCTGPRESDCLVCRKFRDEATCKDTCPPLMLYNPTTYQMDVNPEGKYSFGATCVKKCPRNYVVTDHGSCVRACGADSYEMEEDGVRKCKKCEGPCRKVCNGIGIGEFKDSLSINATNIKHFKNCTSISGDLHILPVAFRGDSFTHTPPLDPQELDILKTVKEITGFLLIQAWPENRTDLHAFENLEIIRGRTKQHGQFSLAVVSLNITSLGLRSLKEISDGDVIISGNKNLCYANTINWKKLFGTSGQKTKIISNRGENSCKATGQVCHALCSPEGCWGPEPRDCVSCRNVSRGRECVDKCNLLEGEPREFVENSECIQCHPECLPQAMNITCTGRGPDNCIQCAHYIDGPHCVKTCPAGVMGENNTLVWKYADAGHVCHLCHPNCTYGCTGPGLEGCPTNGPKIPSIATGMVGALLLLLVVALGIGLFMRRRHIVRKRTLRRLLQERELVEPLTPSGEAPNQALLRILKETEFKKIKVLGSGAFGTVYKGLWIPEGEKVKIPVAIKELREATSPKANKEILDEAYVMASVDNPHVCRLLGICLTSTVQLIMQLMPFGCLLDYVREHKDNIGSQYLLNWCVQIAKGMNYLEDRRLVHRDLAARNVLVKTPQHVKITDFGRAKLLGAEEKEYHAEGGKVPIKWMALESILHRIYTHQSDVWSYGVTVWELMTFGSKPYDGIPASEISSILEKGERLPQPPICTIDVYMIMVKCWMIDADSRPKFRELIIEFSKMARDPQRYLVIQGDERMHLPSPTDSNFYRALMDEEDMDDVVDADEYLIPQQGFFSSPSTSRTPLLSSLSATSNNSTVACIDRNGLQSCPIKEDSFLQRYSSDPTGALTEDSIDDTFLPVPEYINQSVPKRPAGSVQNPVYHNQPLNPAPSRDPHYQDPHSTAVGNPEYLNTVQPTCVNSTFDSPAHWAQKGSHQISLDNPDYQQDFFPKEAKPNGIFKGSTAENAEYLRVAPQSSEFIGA
Procedure, shortened: as §1

EGFR L858R mutant = EGFR L858R mutant (Homo sapiens (Human), UniProt P00533, L858R); experiment: HotSpot radiometric kinase assay, EGFR L858R mutant; conditions: 10 μM ATP
Procedure, shortened: as §1

[1] = biological target: EGFR Δ746-750/C797S mutant (Homo sapiens (Human), UniProt P00533, C797S/DEL746-750); experiment: HotSpot radiometric kinase assay, EGFR Δ746-750/C797S mutant; conditions: 10 μM ATP
EGFR Δ746-750/C797S mutant, sequence (P00533 other isoform, or with tags, fused parts or gaps C797S/del 1-668/del 746-750 limits assumed): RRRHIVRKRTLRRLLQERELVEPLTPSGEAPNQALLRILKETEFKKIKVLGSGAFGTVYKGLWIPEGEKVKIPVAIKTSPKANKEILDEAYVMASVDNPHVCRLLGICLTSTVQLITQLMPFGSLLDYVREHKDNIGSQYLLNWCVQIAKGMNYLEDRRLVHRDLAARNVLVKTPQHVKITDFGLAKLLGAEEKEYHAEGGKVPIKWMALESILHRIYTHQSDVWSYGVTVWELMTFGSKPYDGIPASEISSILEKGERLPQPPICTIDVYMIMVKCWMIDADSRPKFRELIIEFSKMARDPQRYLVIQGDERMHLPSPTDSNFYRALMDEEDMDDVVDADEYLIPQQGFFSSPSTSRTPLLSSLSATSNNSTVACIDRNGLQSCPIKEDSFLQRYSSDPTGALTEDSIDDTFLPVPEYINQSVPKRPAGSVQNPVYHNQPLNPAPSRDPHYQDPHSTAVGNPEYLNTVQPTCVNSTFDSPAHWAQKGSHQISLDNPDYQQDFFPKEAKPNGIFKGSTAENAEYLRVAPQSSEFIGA
Procedure, shortened: as §1

EGFR WT = EGFR WT (Homo sapiens (Human), UniProt P00533); experiment: HotSpot radiometric kinase assay (Reaction Biology), EGFR WT; conditions: 10 μM ATP
EGFR WT, sequence (P00533 25-1210): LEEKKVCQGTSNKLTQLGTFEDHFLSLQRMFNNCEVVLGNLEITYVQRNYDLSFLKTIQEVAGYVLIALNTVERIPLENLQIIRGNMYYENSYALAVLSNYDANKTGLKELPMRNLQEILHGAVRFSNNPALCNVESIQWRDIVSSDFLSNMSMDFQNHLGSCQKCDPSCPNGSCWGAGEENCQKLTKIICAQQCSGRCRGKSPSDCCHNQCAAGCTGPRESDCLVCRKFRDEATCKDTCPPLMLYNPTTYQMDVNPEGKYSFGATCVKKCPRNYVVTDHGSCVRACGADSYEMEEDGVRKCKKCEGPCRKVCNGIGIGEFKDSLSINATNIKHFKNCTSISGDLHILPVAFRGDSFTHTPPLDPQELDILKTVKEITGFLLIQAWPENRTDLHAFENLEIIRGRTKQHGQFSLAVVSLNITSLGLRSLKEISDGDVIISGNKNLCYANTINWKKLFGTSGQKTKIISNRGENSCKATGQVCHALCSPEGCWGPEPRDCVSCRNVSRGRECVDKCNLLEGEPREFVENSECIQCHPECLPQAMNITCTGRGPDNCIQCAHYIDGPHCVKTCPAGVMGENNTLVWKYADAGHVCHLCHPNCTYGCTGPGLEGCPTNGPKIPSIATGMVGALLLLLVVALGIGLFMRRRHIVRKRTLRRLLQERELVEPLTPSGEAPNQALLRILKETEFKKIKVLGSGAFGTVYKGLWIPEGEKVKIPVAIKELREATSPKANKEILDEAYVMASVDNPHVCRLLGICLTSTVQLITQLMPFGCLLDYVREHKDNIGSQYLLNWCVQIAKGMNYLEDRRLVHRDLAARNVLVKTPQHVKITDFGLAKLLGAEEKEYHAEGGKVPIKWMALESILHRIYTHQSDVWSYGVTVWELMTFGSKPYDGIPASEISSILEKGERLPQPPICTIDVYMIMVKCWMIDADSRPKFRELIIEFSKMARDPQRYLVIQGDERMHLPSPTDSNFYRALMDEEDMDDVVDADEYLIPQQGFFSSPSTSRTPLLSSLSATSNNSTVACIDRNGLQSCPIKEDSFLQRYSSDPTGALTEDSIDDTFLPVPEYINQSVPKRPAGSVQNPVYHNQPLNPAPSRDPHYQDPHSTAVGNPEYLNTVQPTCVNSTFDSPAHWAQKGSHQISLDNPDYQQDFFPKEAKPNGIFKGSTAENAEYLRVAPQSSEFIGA
Procedure, shortened: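 Kinase, substrate and cofactors are mixed in 20 mM Hepes pH 7.5 with 10 mM MgCl2, 1 mM EGTA, 2 mM DTT and 1% DMSO. Compound is added, and about 20 min later ATP/33P-ATP (10 μM final) starts a 120-min room-temperature reaction, which is then spotted onto P81 paper.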

[2] = biological target: EGFR L858R/T790M/C797S mutant (Homo sapiens (Human), UniProt P00533, C797S/L858R/T790M); experiment: HotSpot radiometric kinase assay, EGFR L858R/T790M/C797S mutant; conditions: 10 μM ATP
EGFR L858R/T790M/C797S mutant, sequence (P00533 25-1210 T790M/C797S/L858R): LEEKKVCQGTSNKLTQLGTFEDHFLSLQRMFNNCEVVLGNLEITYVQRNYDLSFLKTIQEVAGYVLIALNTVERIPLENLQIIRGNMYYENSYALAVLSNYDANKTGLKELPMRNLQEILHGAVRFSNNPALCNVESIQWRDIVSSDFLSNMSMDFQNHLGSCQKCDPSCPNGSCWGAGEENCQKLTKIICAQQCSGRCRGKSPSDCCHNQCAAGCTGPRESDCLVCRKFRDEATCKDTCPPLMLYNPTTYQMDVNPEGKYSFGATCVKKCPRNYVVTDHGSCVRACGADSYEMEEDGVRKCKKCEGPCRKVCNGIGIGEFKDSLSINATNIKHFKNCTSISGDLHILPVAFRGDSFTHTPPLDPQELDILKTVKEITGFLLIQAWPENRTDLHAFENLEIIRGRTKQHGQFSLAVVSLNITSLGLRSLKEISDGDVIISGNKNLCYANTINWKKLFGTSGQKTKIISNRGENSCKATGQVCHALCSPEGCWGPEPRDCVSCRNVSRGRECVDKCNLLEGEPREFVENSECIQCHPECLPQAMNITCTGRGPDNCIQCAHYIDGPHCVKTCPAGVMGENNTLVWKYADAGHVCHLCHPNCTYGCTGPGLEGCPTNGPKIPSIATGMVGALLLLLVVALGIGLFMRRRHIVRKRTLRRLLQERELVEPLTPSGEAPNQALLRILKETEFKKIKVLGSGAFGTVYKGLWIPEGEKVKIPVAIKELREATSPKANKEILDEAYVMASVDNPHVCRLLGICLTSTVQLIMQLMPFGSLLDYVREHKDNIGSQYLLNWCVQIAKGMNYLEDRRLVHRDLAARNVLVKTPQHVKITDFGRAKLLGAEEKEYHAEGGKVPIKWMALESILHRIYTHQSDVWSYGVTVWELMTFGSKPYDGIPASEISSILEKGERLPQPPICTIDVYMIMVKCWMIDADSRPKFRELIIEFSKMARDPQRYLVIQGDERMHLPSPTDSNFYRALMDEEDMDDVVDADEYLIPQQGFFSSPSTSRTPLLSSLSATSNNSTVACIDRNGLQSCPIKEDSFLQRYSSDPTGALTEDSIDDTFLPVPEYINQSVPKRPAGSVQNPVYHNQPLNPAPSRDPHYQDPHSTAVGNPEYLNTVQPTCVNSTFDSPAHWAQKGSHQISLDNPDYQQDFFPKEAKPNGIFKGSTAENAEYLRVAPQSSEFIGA
Procedure, shortened: as §1

EGFR Δ746-750 mutant = EGFR Δ746-750 mutant (Homo sapiens (Human), UniProt P00533, DEL746-750); experiment: HotSpot radiometric kinase assay, EGFR Δ746-750 mutant; conditions: 10 μM ATP
Procedure, shortened: as §1

EGFR (D770_N771insNPG), sequence (P00533 other isoform, or with tags, fused parts or gaps del 1-668/ins NPG behind 770 limits assumed): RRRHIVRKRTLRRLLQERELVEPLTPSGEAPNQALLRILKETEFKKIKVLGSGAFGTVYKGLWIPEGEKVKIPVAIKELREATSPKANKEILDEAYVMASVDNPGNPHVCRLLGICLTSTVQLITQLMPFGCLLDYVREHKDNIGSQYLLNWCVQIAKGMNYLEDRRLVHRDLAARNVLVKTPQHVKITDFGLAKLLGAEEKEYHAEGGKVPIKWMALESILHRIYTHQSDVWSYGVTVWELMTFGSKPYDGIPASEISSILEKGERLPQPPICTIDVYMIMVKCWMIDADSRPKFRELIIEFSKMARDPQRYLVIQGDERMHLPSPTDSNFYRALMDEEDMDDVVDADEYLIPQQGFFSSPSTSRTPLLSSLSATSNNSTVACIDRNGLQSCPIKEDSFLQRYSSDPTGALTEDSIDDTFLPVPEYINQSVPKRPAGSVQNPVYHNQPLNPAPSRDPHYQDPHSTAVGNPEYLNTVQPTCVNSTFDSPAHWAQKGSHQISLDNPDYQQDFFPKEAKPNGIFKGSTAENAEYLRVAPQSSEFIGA

## Cc1nn(CCO)c2c1/C=C/c1n[nH]c3ccc(cc13)-c1cnn(C)c1CN(C)CCO2 [Example 56, 2-[(17E)-8,10,16-trimethyl-2,8,9,10,11,12-hexahydro-14H-3,5-ethenotripyrazolo[3,4-f:4′,3′-j:4″,3″- n][1,4]oxazacyclopentadecin-14-yl]ethan-1-ol]
EGFR (D770_N771insNPG)
  IC50: 50 nM
EGFR L858R/T790M mutant
  IC50: 1.22 nM
EGFR L858R mutant
  IC50: 22.2 nM
[1]
  IC50: 8.48 nM
EGFR WT
  IC50: 42.7 nM
[2]
  IC50: 1.12 nM
EGFR Δ746-750 mutant
  IC50: 15 nM

## C[C@H]1CN(C)Cc2c(c(O[C@H]3CCN(S(C)(=O)=O)C3)nn2CCO)/C=C/c2n[nH]c3ccc(cc23)-c2cnn(C)c2O1 [Example 182, 2-[(10S,17E)-16-{[(3S)-1-(methanesulfonyl)pyrrolidin-3-yl]oxy}-8,10,12-trimethyl-2,8,10,11,12,13-hexahydro-14H-3,5-ethenotripyrazolo[3,4-f:3′,4′-j:4″,3″- n][1,4]oxazacyclopentadecin-14-yl]ethan-1-ol]
EGFR (D770_N771insNPG)
  IC50: 300 nM
EGFR L858R/T790M mutant
  IC50: 0.54 nM
EGFR L858R mutant
  IC50: 24.7 nM
[1]
  IC50: 6.6 nM
EGFR WT
  IC50: 139 nM
[2]
  IC50: 1.37 nM
EGFR Δ746-750 mutant
  IC50: 24 nM

## Cc1nn([C@H]2CCOC[C@@H]2O)c2c1/C=C/c1n[nH]c3ccc(cc13)-c1cnn(C)c1OCCCO2 (racemic) [Example 85, (rac)-1,5-anhydr-3o-2,3-dideoxy-3-[(17E)-8,16-dimethyl-2,8,11,12-tetrahydro-10H,14H-3,5-etheno[1,5]dioxacyclopentadecino[10,11-c:15,14-c′:6,7-c″ ]tripyrazol-14-yl]-L-threo-pentitol]
EGFR (D770_N771insNPG)
  IC50: > 1000 nM
EGFR L858R/T790M mutant
  IC50: > 1000 nM
EGFR L858R mutant
  IC50: > 1000 nM
[1]
  IC50: > 1000 nM
EGFR WT
  IC50: > 1000 nM
[2]
  IC50: > 1000 nM
EGFR Δ746-750 mutant
  IC50: > 1000 nM

## CN1CCN(c2ccc3c(c2)OC2CCN(CCOc4c(cnn4C)-c4ccc5[nH]nc(c5c4)/C=C/3)C2=O)CC1 (stereo in doubt) [Example 131]
EGFR (D770_N771insNPG)
  IC50: 6.79 nM
EGFR L858R/T790M mutant
  IC50: 0.57 nM
EGFR L858R mutant
  IC50: 4.02 nM
[1]
  IC50: 4.09 nM
EGFR WT
  IC50: 17.7 nM
[2]
  IC50: 1.9 nM
EGFR Δ746-750 mutant
  IC50: 1.65 nM

## Cc1nn([C@H]2C[C@@H](N(C)CCN(C)C)C2)c2c1/C=C/c1n[nH]c3ccc(cc13)-c1cnn(C)c1OCCCO2 [Example 103, N^1-{(1s,3s)-3-[(17E)-8,16-dimethyl-2,8,11,12-tetrahydro-10H,14H-3,5-etheno[1,5]dioxacyclopentadecino[10,11-c:15,14-c′:6,7-c″]tripyrazol-14-yl]cyclobutyl}-N^1,N^2,N^2-trimethylethane-1,2-diamine]
EGFR (D770_N771insNPG)
  IC50: 344 nM
EGFR L858R/T790M mutant
  IC50: 11.5 nM
EGFR L858R mutant
  IC50: 103 nM
[1]
  IC50: 171 nM
EGFR WT
  IC50: 358 nM
[2]
  IC50: 40.4 nM
EGFR Δ746-750 mutant
  IC50: 105 nM

## Cc1nn([C@H]2COC[C@@H]2O)c2c1/C=C/c1n[nH]c3ccc(cc13)-c1cnn(C)c1OCCCO2 (single isomer, unassigned) [Example 76]
EGFR (D770_N771insNPG)
  IC50: 233 nM
EGFR L858R/T790M mutant
  IC50: 42.9 nM
EGFR L858R mutant
  IC50: 156 nM
[1]
  IC50: 90.8 nM
EGFR WT
  IC50: 538 nM
[2]
  IC50: 63.4 nM
EGFR Δ746-750 mutant
  IC50: 147 nM

## Cc1nn(C)c2c1/C=C/c1n[nH]c3ccc(cc13)-c1cnn(C)c1CN(C)[C@@H](C)CO2 [Example 106, (11S,17E)-8,10,11,14,16-pentamethyl-2,9,10,11,12,14-hexahydro-8H-3,5-ethenotripyrazolo[3,4-f:4′,3′-j:4″,3″-n][1,4]oxazacyclopentadecine]
EGFR (D770_N771insNPG)
  IC50: 111 nM
EGFR L858R/T790M mutant
  IC50: 2.49 nM
EGFR L858R mutant
  IC50: 34.8 nM
[1]
  IC50: 68.5 nM
EGFR WT
  IC50: 107 nM
[2]
  IC50: 10.8 nM
EGFR Δ746-750 mutant
  IC50: 57.6 nM

## C[C@H]1CN(C)Cc2c(c(OC3CN(S(C)(=O)=O)C3)nn2C)/C=C/c2n[nH]c3ccc(cc23)-c2cnn(C)c2O1 [Example 150, (10S,17E)-16-{[1-(methanesulfonyl)azetidin-3-yl]oxy}-8,10,12,14-tetramethyl-2,10,11,12,13,14-hexahydro-8H-3,5-ethenotripyrazolo[3,4-f:3′,4′-j:4″,3″-n][1,4]oxazacyclopentadecine]
EGFR (D770_N771insNPG)
  IC50: 33.4 nM
EGFR L858R/T790M mutant
  IC50: 0.45 nM
EGFR L858R mutant
  IC50: 2.31 nM
[1]
  IC50: 2.58 nM
EGFR WT
  IC50: 6.36 nM
[2]
  IC50: 0.37 nM
EGFR Δ746-750 mutant
  IC50: 3.21 nM
